One test has as its system MDA-MIB-453. The experiment in a line: Cell growth inhibition assay, MDA-MIB-453. Particulars: 168 h; MDA-MIB-453, 7 days. The format is cell-based. As to the method:
(§1) Tumor cell lines are plated onto 96-well, black wall poly-D-lysine plates (Corning #354640), and incubated at 37° C., 5% CO2 for 18-24 hours. Compound was added at 1:3 dilutions in DMSO and cells were incubated at 37° C., 5% CO2 for 7 days. For adherent cell lines, cells were fixed and stained with propidium iodide and scanned on Acumen (channel 3 setting). For suspension cell lines, cell growth was monitored using Cell Titer-Glo reagent.

In test [1] the target is T1, EP300 (Homo sapiens, UniProt Q09472).
T1 sequence (Q09472 1049-1156 limits assumed): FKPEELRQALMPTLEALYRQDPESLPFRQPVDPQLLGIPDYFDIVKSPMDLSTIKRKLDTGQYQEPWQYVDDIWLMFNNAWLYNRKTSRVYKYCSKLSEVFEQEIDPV
In words: BromoKdELECT platform assay, EP300. The format is binding. Also on record: purchased DiscoverX (BromoKdELECT service). Particulars: 11 points dose-response, mean from a duplicate experiment. An excerpt: (§2) The purpose of this assay is to evaluate the in vitro target engagement and selectivity (https://www.discoverx.com/services/drug-discovery-development-services/epigenetic-profiling/bromoscan-epigenetic-profiling/bromokdelect). Assay measurement is based on the amount of bromodomain captured in test and control samples by using quantitative PCR technology that detects the DNA label associated to bromodomain. Compounds that bind the bromodomain active site prevents its binding to the immobilized ligand and will reduce the amount of bromodomain captured on the solid support. […] Thus, compound activity is monitored by measuring the amount of bromodomain captured in test versus control samples by using qPCR. Binding affinity for test compound-bromodomain interactions are calculated by measuring the amount of bromodomain captured on the solid support as a function of the test compound concentration.
(§3) Binding affinity (Kd) of the compounds of Examples 1 and 2 towards CREBBP, EP300 and BRD4 (Bromodomain 1 (BD1) and Bromodomain 2 (BD2)) are determined in an 11 points dose-response study (See Table 5). Data is represented as a mean from a duplicate experiment.

The target in a further test is T2, BRD4 (BD1) (Homo sapiens, UniProt O60885).
T2 construct: BRD4 (Bromodomain 1 (BD1) and Bromodomain 2 (BD2)); purchased DiscoverX (BromoKdELECT service)
In words: BromoKdELECT platform assay, BRD4 (BD1). Particulars: 11 points dose-response, mean from a duplicate experiment. Type of test: binding.
Source text: as §2, §3

Test [2] addresses T3, CREBBP (Homo sapiens, UniProt Q92793). In words: BromoKdELECT platform assay, CREBBP. The format is binding. Also on record: purchased DiscoverX (BromoKdELECT service). The settings on record: 11 points dose-response, mean from a duplicate experiment.
Source text: as §2, §3

In test [3] the target is T3, CREBBP. In words: NanoBRET assay, CREBBP bromodomain. Also on record: NanoLuc-CREBBP-BD (Promega, 0.0002 μg); host or cells: HEK293. The format is cell-based. The settings on record: NanoBRET in HEK293 cells, read after 4 hours incubation; mean ± Standard Deviation. Here is the method: (§4) HEK293 cells are seeded at 10×10^6 cells/16 mL in DMEM+10% FBS in a T-75 flask and left to attach for 4-6 hours. Transfection reagents are diluted in Opti-MEM media (no phenol red, no FBS) and 8% Fugene HD containing expression plasmids at a final concentration of the following: 1: Histone H3.3 HaloTag DNA (Promega, 0.02 μg)+NanoLuc-CREBBP-BD (Promega, 0.0002 μg); 2: Histone H3.3 HaloTag DNA (Promega, 0.02 μg)+NanoLuc-EP300-BD (Promega, 0.0002 μg); 3: Histone H4 HaloTag DNA (0.02 μg)+NanLuc-BRD4 Full Length (Promega, 0.0002 μg). The DNA/Fugene mixtures are left at RT for 10 minutes. Transfection mix (800 μL) is added per flask and immediately swirled to cover the cells. The plates are returned to the incubator for overnight transfection. The next day, HaloTag NanoBRET 618 ligand (20 μL/vial of 0.1 mM) is thawed at RT. […]
(§5) Compound is serially diluted and added to 96-well plates (2 10 mM, 3-fold dilutions, 100% DMSO). […] CREBBP/EP300 plates are read after 4 hours incubation and the BRD4 plates are read after overnight incubation. To develop plates for reading, allow all reagents to reach RT before use. […] The plate is shaken for 1 minute to mix and within 10 minutes, read on Envision plate reader with the following settings: Mirror: Luminescence; Emission filter: E600LP; 2nd emission filter: D460/50; Measurement height (mm): 6.5; Measurement time (s): 0.2 second.

Test [4] concerns the target T1, EP300. In words: NanoBRET assay, EP300 bromodomain. Type of test: cell-based. Also on record: NanoLuc-EP300-BD (Promega, 0.0002 μg); host or cells: HEK293. Particulars: NanoBRET in HEK293 cells, read after 4 hours incubation; mean ± Standard Deviation. As to the method:
as §4, §5
(BRET reads energy transfer from a luciferase to a nearby fluorophore.)

The subject of the next test is EOL-1. In words: Cell growth inhibition assay, EOL-1. The format is cell-based. The settings on record: Homo sapiens, EOL1, 168 h; EOL-1, 7 days. Here is the method:
as §1

A further test deals with NCI-H1048. In words: Cell growth inhibition assay, NCI-H1048. Type of test: cell-based. Particulars: Homo sapiens, 168 h; NCI-H1048, 7 days. Here is the method:
as §1

A further test addresses T4, BRD4 (BD1, BD2) (Homo sapiens, UniProt O60885).
T4 construct: BRD4 (Bromodomain 1 (BD1) and Bromodomain 2 (BD2)); purchased DiscoverX (BromoKdELECT service)
In words: BromoKdELECT platform assay, BRD4 (BD1, BD2). The format is binding. Particulars: 11 points dose-response, mean from a duplicate experiment.
Source text: as §2, §3

For the next test, the system named is NCI-H211. The experiment in a line: Cell growth inhibition assay, NCI-H211. Type of test: cell-based. Particulars: Homo sapiens, 168 h; NCI-H211, 7 days. Here is the method:
as §1

A further test deals with KG-1a. The experiment in a line: Cell growth inhibition assay, KG-1a. The format is cell-based. Particulars: Homo sapiens, 168 h, 7 days. Here is the method: as §1
The next test deals with T5, BRD4 (BD2) (Homo sapiens, UniProt O60885).
T5 construct: BRD4 (Bromodomain 1 (BD1) and Bromodomain 2 (BD2)); purchased DiscoverX (BromoKdELECT service)
The experiment in a line: BromoKdELECT platform assay, BRD4 (BD2). The format is binding. The settings on record: 11 points dose-response, mean from a duplicate experiment.
Source text: as §2, §3

Another test has as its target T6, hBRD4 (Homo sapiens, UniProt O60885).
T6 construct: NanLuc-BRD4 Full Length (Promega, 0.0002 μg); host or cells: HEK293
The experiment in a line: NanoBRET assay, BRD4 full length. The format is cell-based. The settings on record: NanoBRET in HEK293 cells, read after overnight incubation; mean ± Standard Deviation. Here is the method:
as §4, §5

In a further test the test system is SW780. In words: Cell growth inhibition assay, SW780. The settings on record: Homo sapiens, 168 h; SW780, 7 days. The format is cell-based. Here is the method:
as §1

In test [5] the test system is 22Rv1 prostate cancer cells. In words: Cell proliferation assay in 22Rv1. The format is cell-based. The settings on record: Homo sapiens, 22Rv1, 168 h, 22Rv1, 7 days; for inhibition at 0.37 µM: single agent at 370 nM. As to the method:
The purpose of the following cell proliferation assay is to detect whether the compound of Example 2 and combinations thereof have an effect on cell proliferation.
22Rv1 (purchased from ATCC CRL-2505) cells are seeded at a density of 1,000 cells per well in RMPI 10% FBS (20 μL volume) into a clear bottom 384-well cell culture plate. The plate is incubated at 37° C. and 5% CO2. The cells are dosed the following day with the compound of Example 2 and the compound of Example 2 in combination with the known anti-cancer therapeutics found in the table below. An Echo 555 acoustic dispenser is used to prepare serial dilutions (1:3) of the compound of Example 2, and combinations thereof, in concentrations ranging from 60 μM to 0.003 μM. The cells are then dosed by addition of 5 μL from the serial dilution plate to the cell plate, producing a final DMSO concentration of 0.2% with a final concentration dose ranging from 20 μM to 0.001 μM for the compound of Example 2 and combinations thereof.
Media containing 0.2% DMSO is used for the maximum point and 2 μM staurosporine in the growth media containing 0.2% DMSO is used for the minimum point. After dosing with the compound of Example 2 and combinations thereof, the cell plates are incubated at 37° C. and 5% CO2. Seven days after test compound addition, plates are removed from the incubator and cold EtOH (96%, 65 μL) is added to each well. After 30 minutes, the media is removed and RNase (20 μL, 50 μg/mL) (Sigma) and a 1:1000 propidium iodide dilution in PBS are added to each well. The plates are sealed and incubated for 1 hour at room temperature and preserved from light. Plates are then scanned with ACUMEN EXPLORER™ [Laser-scanning fluorescence microplate cytometer manufactured by TTP LABTECH LTD]. The number of 22Rv1 cells is evaluated through an estimated number of cells, calculated through the area parameter (ratio of total area of the total cells population), a designated range of peak intensity of FL-3 (PI), and the mean area of the single cell population defined by perimeter. Data is then processed through an NGR screening tool. Data is analyzed using a 4-parameter nonlinear logistic equation (four-parameter logistic concentration-response curve): Y=bot+[(top−bot)/1+(x/IC50)slope] where Y=% inhibition, X=concentration yielding y % inhibition, “bot”=minimum value of y attained by curve, “top”=maximum value of y attained by curve, and “slope”=steepness of curve at IC50. % Inh=[(median Max−x/median Max−median Min)]·100.

The values below come from patent US20220251096A1, “7,8-DIHYDRO-4H-PYRAZOLO[4,3-c]AZEPINE-6-ONE COMPOUNDS” (Eli Lilly and Company, priority 2019, published 2022).

T3 sequence (Q92793 1085-1192 limits assumed): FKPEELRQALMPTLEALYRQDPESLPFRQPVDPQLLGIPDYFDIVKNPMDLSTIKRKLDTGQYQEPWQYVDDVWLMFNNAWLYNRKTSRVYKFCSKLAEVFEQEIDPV

Regarding `CNC(=O)c1ccc(-c2cc3cccc(-c4nn(C)c5c4CN(C)C(=O)CC5)c3cn2)cn1` [Example 1, 5-[8-(1,5-Dimethyl-6-oxo-7,8-dihydro-4H-pyrazolo[4,3-c]azepin-3-yl)-3-isoquinolyl]-N-methyl-pyridine-2-carboxamide], the concentration for half-maximal inhibition (IC50) (commonly the point on the concentration scale where inhibition reaches its midpoint) with MDA-MIB-453 came out at 28 nM; against CREBBP [3] it was 16 ± 6.64 nM; on EP300 [4], 15.1 ± 2.75 nM; in the test on EOL-1, 0.8 nM; in the test with NCI-H1048 it was 10 nM; in the test with NCI-H211 it was 36 nM. Besides, the results for the IC50 in the test with KG-1a, on hBRD4 and in the test with SW780 were 37 nM, 5570 ± 4100 nM and 1 nM, respectively. The Kd (in general, a measure of binding affinity in units of concentration) on EP300 [1] was found to be 0.16 nM; at BRD4 (BD1), 2000 nM; on CREBBP [2], 1.1 nM; at BRD4 (BD1, BD2), 4400 nM; on BRD4 (BD2), 6700 nM.

Consider `CCN1CCN(Cc2ccc(Nc3ncc(F)c(-c4cc(F)c5nc(C)n(C(C)C)c5c4)n3)nc2)CC1` [Abemaciclib, abemaciclib, reference compound], for which the inhibition (usually the relative decrease from the control value, in per cent) at 0.012 µM in test [5] (single agent at 12 nM) is 34.3%. The inhibition at 0.037 µM in test [5] (single agent at 37 nM) amounted to 62.4%.

Consider `CC(O)c1cc(C(=O)N[C@@H](C)Cn2ccc(-c3ccc(C#N)c(Cl)c3)n2)[nH]n1` (stereo partly shown) [Darolutamide, darolutamide, reference compound], for which the inhibition at 0.74 µM in test [5] (single agent at 740 nM) stood at 6.69%. Further, the inhibition at 2.2 µM in [5] (single agent at 2.2 μM) was determined as 6.18%.

Consider `CNC(=O)c1ccc(N2C(=S)N(c3ccc(C#N)c(C(F)(F)F)c3)C(=O)C2(C)C)cc1F` [Enzalutamide, enzalutamide, reference compound], for which the inhibition at 0.37 µM in test [5] is -0.12%. Further, the inhibition at 3.3 µM in test [5] (single agent at 3.3 μM) was 0.41%.

As to `Cc1nc(NC(=O)N2CCC[C@H]2C(N)=O)sc1-c1ccnc(C(C)(C)C(F)(F)F)c1` [Alpelisib, alpelisib, reference compound], in test [5] (single agent at 120 nM), the inhibition at 0.12 µM came to 33.1%. For the same compound, the inhibition at 0.37 µM in test [5] came to 45.3%.
